From the Kinase Knowledgebase extract (Sharma et al. 2016)

Target: PIK3CB;PIK3CG;PIK3CD;PIK3CA (human) (UniProt P48736)
Experiment: Enzyme Assay

In order of falling IC50:
1. O=C(c1nn(-c2ccccc2)c2c1CS(=O)(=O)c1c(-c3ccccc3)cccc1-2)N1CCOCC1  17900 nM
2. CCCCNc1ccc2c(c1)S(=O)(=O)Cc1c(C(=O)N3CCOCC3)nn(-c3ccccc3)c1-2  9790 nM
3. COCCNc1ccc2c(c1)S(=O)(=O)Cc1c(C(=O)N3CCOCC3)nn(-c3ccccc3)c1-2  6610 nM
4. CN1CCCC(Cn2nc(C(=O)N3CCOCC3)c3c2-c2ccccc2S(=O)(=O)C3)C1 (centres undefined)  6050 nM
5. Cn1nc(C(=O)N2CCOCC2)c2c1-c1ccccc1S(=O)(=O)C2Cc1ccccc1 (centres undefined)  5270 nM
6. O=C(c1nn([C@@H]2CCCN(C3CCCOC3)C2)c2c1CS(=O)(=O)c1ncccc1-2)N1CCOCC1 (some centres undefined)  2930 nM
7. O=C(c1n[nH]c2c1CS(=O)(=O)c1ccccc1-2)N1CCOCC1  2880 nM
8. O=C(c1nn(C2CCNCC2)c2c1CS(=O)(=O)c1ccccc1-2)N1CCOCC1  1520 nM
9. Cc1ccc2c(c1)-c1c(c(C(=O)N3CCOCC3)nn1-c1ccccc1)CS2(=O)=O  1500 nM
10. O=C(c1nn([C@@H]2CCCN(CCN3CCOCC3)C2)c2c1CS(=O)(=O)c1ccccc1-2)N1CCOCC1  1280 nM
11. CN(C)Cc1cccc(-n2nc(C(=O)N3CCOCC3)c3c2-c2ccccc2S(=O)(=O)C3)c1  1110 nM
12. NC(=O)c1cccc(-n2nc(C(=O)N3CCOCC3)c3c2-c2ccccc2S(=O)(=O)C3)c1  957 nM
13. CS(=O)(=O)C1CCN(Cc2ccc(-n3nc(C(=O)N4CCOCC4)c4c3-c3ccccc3S(=O)(=O)C4)cc2)C1 (centres undefined)  920 nM
14. O=C(c1nn(C2CCC(CN3CCOCC3)CC2)c2c1CS(=O)(=O)c1ccccc1-2)N1CCOCC1 (centres undefined)  912 nM
15. COCCCn1nc(C(=O)N2CCOCC2)c2c1-c1ccccc1S(=O)(=O)C2  907 nM
16. O=C(c1nn(C2CCOC2)c2c1CS(=O)(=O)c1ccccc1-2)N1CCOCC1 (centres undefined)  890 nM
17. O=C(c1nn(C2CCOCC2)c2c1CS(=O)(=O)c1c(Cl)cccc1-2)N1CCOCC1  673 nM
18. O=C(c1nn(CCO)c2c1CS(=O)(=O)c1ccccc1-2)N1CCOCC1  661 nM
19. CC(C)(C)CCN1CCCC(n2nc(C(=O)N3CCOCC3)c3c2-c2ccccc2S(=O)(=O)C3)C1 (centres undefined)  587 nM
20. O=C(c1nn(CC2CCNCC2)c2c1CS(=O)(=O)c1ccccc1-2)N1CCOCC1  531 nM
21. CC1(C)CCCC(n2nc(C(=O)N3CCOCC3)c3c2-c2ccccc2S(=O)(=O)C3)C1 (centres undefined)  498 nM
22. O=C(c1nn(-c2cccc(Cl)c2)c2c1CS(=O)(=O)c1ccccc1-2)N1CCOCC1  440 nM
23. O=C(c1nn(-c2ccc(F)cc2)c2c1CS(=O)(=O)c1ccccc1-2)N1CCOCC1  373 nM
24. CC(C)(CN1CCOCC1)c1ccc(-n2nc(C(=O)N3CCOCC3)c3c2-c2ccccc2S(=O)(=O)C3)cc1  341 nM
25. COC1CCN(C(=O)c2cccc(-n3nc(C(=O)N4CCOCC4)c4c3-c3ccccc3S(=O)(=O)C4)c2)CC1  302 nM
26. O=C(c1nn(-c2ccc(CN3CCCC3)cc2)c2c1CS(=O)(=O)c1ccccc1-2)N1CCOCC1  285 nM
27. O=C(c1nn(C2CCCC2)c2c1CS(=O)(=O)c1ccccc1-2)N1CCOCC1  205 nM
28. COCCN1CCCC(n2nc(C(=O)N3CCOCC3)c3c2-c2ccccc2S(=O)(=O)C3)C1 (centres undefined)  188 nM
29. CC1(C)CN(Cc2ccc(-n3nc(C(=O)N4CCOCC4)c4c3-c3ccccc3S(=O)(=O)C4)cc2)CCO1  120 nM
30. O=C(c1nn(C2CCCN(CCN3CCOCC3)C2)c2c1CS(=O)(=O)c1c(Cl)cccc1-2)N1CCOCC1 (centres undefined)  120 nM
31. O=C(c1nn(C2CCN(CCN3CC[C@@H](F)C3)C2)c2c1CS(=O)(=O)c1ccccc1-2)N1CCOCC1 (some centres undefined)  120 nM
32. CC1CN(Cc2ccc(-n3nc(C(=O)N4CCOCC4)c4c3-c3ccccc3S(=O)(=O)C4)cc2)CCO1 (centres undefined)  105 nM
33. COCCN1CCC[C@H](n2nc(C(=O)N3CCOCC3)c3c2-c2ccc(OC)cc2S(=O)(=O)C3)C1  93 nM
34. O=C(c1cccc(-n2nc(C(=O)N3CCOCC3)c3c2-c2ccccc2S(=O)(=O)C3)c1)N1CCOCC1  73 nM
35. C[C@@H]1CN(CCN2CCC[C@H](n3nc(C(=O)N4CCOCC4)c4c3-c3ccccc3S(=O)(=O)C4)C2)C[C@H](C)O1  65 nM
36. COc1cccc2c1S(=O)(=O)Cc1c(C(=O)N3CCOCC3)nn([C@H]3CCCN(CCN4CCOCC4)C3)c1-2  59 nM
37. O=C(c1nn(C2CCCN(CCC3CCOCC3)C2)c2c1CS(=O)(=O)c1ccccc1-2)N1CCOCC1 (centres undefined)  54 nM
38. O=C(c1nn([C@H]2CCCN(Cc3ccncc3)C2)c2c1CS(=O)(=O)c1ccccc1-2)N1CCOCC1  45 nM
39. O=C(c1nn(C2CCCN(CCN3CC(F)(F)C3)C2)c2c1CS(=O)(=O)c1c(F)cccc1-2)N1CCOCC1 (centres undefined)  38 nM
40. O=C(c1nn([C@H]2CCCN(C3CCCOC3)C2)c2c1CS(=O)(=O)c1ncccc1-2)N1CCOCC1 (some centres undefined)  36 nM
41. O=C(c1nn([C@H]2CCCN(CCN3CCOCC3)C2)c2c1CS(=O)(=O)c1c(Cl)cccc1-2)N1CCOCC1  30 nM
42. CC1CN(CCN2CCC[C@H](n3nc(C(=O)N4CCOCC4)c4c3-c3ccccc3S(=O)(=O)C4)C2)CCO1 (some centres undefined)  29 nM
43. COc1ccc2c(c1)S(=O)(=O)Cc1c(C(=O)N3CCOCC3)nn([C@H]3CCCN(CCN4CCOCC4)C3)c1-2  24 nM
44. O=C(c1nn([C@H]2CCCN(CCN3CCCC3)C2)c2c1CS(=O)(=O)c1ccccc1-2)N1CCOCC1  7 nM
